The values below come from publication PMC4405029 (Bioorganic & medicinal chemistry letters, 2015).

Structures are written as SMILES.

Assay in all cases: Electrical cell-substrate impedance sensing
Common to all, as to type: cell-based

The target of one experiment is T1, recombinant EP1 receptor (Homo sapiens, UniProt P34995).
T1 sequence (P34995 1-402): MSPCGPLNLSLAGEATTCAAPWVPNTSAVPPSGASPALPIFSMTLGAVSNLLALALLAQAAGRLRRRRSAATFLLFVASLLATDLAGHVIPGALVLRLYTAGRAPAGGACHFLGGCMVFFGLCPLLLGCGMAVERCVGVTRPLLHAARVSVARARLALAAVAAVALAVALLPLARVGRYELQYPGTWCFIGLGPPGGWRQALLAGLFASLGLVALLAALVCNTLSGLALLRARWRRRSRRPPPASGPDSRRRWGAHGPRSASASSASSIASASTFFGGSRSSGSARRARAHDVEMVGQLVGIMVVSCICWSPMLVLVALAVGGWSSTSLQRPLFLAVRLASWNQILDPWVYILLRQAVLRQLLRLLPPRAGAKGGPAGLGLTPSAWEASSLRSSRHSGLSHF
The following applies: ECIS, EP1 expressed in CHO cells.

The target in the next experiment is T2, recombinant EP3 receptor (Homo sapiens, UniProt P43115).
T2 sequence (P43115 1-390): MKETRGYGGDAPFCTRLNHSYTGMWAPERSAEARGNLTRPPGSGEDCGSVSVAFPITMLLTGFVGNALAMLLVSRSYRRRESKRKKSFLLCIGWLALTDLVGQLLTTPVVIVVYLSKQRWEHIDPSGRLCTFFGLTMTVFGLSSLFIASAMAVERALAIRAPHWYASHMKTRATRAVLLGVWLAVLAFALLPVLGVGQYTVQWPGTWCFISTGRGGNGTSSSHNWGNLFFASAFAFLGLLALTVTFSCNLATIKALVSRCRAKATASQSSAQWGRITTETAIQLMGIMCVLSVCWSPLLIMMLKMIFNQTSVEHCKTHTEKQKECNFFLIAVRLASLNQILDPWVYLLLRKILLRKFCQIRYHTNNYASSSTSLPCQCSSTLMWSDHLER
The following applies: ECIS, EP3 expressed in CHO cells.

Another experiment relates to recombinant EP4 receptor. The following applies: ECIS, EP4 expressed in CHO cells.

For `CCCCC[C@H](O)/C=C/[C@H]1[C@H](O)CC(=O)[C@@H]1C/C=C\CCCC(=O)NCCO` [PGE2-EA, prostaglandin-ethanolamide], at recombinant EP1 receptor, the “Activation of EP1 receptor (cell impedance)” value (shortened to “Activation of EP1 receptor”) is “did not activate”. Moreover, the “Activation of EP3 receptor (cell impedance)” value (from here on “Activation of EP3 receptor”) on recombinant EP3 receptor was “did not activate”. Further, the “Activation of EP4 receptor (cell impedance)” value (“Activation of EP4 receptor” for short) in the experiment with recombinant EP4 receptor is “did not activate”.

Turning to `O=C(CCC/C=C\C[C@H]1C(=O)C[C@@H](O)[C@@H]1/C=C/[C@@H](O)CCc1ccccc1)NCCO` [12a], the “Activation of EP1 receptor” value on recombinant EP1 receptor is “did not activate”. Further, on recombinant EP3 receptor, the “Activation of EP3 receptor” value is “did not activate”. Further, the “Activation of EP4 receptor” value in the experiment on recombinant EP4 receptor is given as “did not activate”.

For `CCCCC[C@H](O)/C=C/[C@H]1[C@H](O)CC(=O)[C@@H]1C/C=C\CCCC(=O)O` [PGE2], the “Activation of EP1 receptor” value at recombinant EP1 receptor is given as “rapid change in impedance”. Moreover, the “Activation of EP3 receptor” value on recombinant EP3 receptor is recorded as “rapid change in impedance”. The “Activation of EP4 receptor” value in the experiment with recombinant EP4 receptor was “rapid change in impedance”.
